Test results: US11337964B2, “Isoindoline derivative, pharmaceutical composition and use thereof” (Kangpu Biopharmaceuticals, Ltd., priority 2017, dated 2022)

Assays:
Assay type in all cases: biochemical
Settings in all cases: FAM-cAMP substrate, 30 minutes at room temperature
PDE4A1A = biological target: T1, PDE4A1A (Homo sapiens, UniProt P27815); test: PDE4 activity inhibition assay, PDE4A1A
T1 construct: purchased BPS 60040
Experimental: (§1) The IC50 value of the inhibitory effect of the compound on PDE4A1A, PDE4B1 and PDE4D3 was tested.
(§2) Positive compound: Trequinsin (Sigma, Cat. No. T2057).
(§3) Equipment: Wallac Victor Multi-label counter (Perkin Elmer).
(§4) I. Preparing 1× reaction liquid and termination liquid;
(§5) II. PDE enzymatic reaction; • 1) The PDE was dissolved in 1× reaction solution to form 2× enzyme solution. • 2) FAM-cAMP was dissolved in 1× reaction solution to form 2× substrate solution. • 3) Echo 550 was used to transfer the corresponding volume of the compound in DMSO solution to the reaction plate. • 4) 2× enzyme solution was added into the corresponding well of the reaction plate and incubated with the compound solution at room temperature for 15 minutes. • 5) 2× substrate solution was added into the corresponding well of the reaction plate to initiate the reaction. • 6) Reaction plate was incubated at room temperature for 30 minutes and terminated by adding termination liquid, then incubated at room temperature for 60 minutes.
(§6) The inhibition rate was calculated by Excel; IC50 was calculated by GraphPad Prism.

PDE4D3 = biological target: T2, PDE4D3 (Homo sapiens, UniProt Q08499); test: PDE4 activity inhibition assay, PDE4D3
T2 construct: purchased BPS 60046
Experimental: as §1, §2, §3, §4, §5, §6

PDE4B1 = biological target: T3, PDE4B1 (Homo sapiens, UniProt Q07343); test: PDE4 activity inhibition assay, PDE4B1
T3 construct: purchased BPS 60041
Experimental: as §1, §2, §3, §4, §5, §6

T1 sequence (P27815 1-647 isoform P27815-4): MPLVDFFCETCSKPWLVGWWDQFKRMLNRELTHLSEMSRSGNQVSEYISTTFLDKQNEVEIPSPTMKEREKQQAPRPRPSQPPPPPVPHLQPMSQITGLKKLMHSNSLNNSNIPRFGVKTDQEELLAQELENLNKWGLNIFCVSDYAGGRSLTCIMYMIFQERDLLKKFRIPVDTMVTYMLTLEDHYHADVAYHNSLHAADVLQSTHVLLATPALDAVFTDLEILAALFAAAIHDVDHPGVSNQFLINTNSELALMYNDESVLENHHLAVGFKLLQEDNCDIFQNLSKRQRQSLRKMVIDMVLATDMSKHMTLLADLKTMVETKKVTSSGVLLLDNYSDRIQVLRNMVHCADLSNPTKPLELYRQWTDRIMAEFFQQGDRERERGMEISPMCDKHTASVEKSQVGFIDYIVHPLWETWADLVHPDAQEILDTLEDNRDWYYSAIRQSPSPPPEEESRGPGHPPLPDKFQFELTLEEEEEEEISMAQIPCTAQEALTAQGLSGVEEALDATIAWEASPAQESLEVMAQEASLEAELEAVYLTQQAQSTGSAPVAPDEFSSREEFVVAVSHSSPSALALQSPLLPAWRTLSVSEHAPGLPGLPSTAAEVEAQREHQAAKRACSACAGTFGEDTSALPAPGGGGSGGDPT
T3 sequence (Q07343 whole entry): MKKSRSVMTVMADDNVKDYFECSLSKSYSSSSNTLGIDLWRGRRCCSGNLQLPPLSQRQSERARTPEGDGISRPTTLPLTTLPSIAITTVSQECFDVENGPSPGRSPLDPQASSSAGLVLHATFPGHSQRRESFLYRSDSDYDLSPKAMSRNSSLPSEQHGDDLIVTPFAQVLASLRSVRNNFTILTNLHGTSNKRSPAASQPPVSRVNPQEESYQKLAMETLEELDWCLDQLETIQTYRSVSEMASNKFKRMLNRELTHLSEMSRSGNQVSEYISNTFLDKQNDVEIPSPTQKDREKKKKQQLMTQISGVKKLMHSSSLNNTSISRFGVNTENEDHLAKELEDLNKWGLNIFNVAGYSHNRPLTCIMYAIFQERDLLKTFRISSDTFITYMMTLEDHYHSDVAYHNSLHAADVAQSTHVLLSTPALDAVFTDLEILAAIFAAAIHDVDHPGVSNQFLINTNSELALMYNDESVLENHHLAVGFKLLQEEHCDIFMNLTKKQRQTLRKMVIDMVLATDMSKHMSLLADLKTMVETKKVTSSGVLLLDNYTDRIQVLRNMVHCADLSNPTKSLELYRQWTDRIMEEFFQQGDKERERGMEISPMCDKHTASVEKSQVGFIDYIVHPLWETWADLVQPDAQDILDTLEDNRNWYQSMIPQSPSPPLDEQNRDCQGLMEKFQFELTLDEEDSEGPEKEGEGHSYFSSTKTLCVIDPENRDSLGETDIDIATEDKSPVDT
T2 sequence (Q08499 1-673 isoform Q08499-2): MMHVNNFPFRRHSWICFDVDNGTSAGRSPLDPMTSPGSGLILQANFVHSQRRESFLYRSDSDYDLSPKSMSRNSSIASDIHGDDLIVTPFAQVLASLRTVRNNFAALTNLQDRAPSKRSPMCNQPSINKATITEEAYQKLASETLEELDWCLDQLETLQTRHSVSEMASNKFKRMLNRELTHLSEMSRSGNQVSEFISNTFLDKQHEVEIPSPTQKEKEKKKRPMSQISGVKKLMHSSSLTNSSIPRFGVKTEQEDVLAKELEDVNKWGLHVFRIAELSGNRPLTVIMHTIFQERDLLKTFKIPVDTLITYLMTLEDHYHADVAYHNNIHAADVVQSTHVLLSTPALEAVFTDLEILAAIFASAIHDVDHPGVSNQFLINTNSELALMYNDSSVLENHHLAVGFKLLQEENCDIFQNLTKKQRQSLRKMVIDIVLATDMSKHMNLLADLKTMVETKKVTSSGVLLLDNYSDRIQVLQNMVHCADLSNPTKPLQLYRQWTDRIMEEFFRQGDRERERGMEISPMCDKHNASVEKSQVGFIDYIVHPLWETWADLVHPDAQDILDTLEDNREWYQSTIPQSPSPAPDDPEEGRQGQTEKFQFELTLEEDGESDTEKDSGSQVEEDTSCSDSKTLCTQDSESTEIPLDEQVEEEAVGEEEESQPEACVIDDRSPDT

| SMILES | IC50 (PDE4A1A) [nM] | IC50 (PDE4D3) [nM] | IC50 (PDE4B1) [nM] |
| --- | --- | --- | --- |
| CCOc1cc(C(CS(C)(=O)=O)N2C(=O)c3ccc(F)c(NC(C)=O)c3C2=O)ccc1OC (stereo not drawn) [Compound 301, N-(2-(1-(3-ethoxy-4-methoxyphenyl)-2-(methylsulfonyl)ethyl)-5-fluoro-1,3-dioxoisoindolin-4-yl)acetamide] | 102 | 65 | 116 |
| [2H]C([2H])([2H])Oc1ccc([C@@H](CS(C)(=O)=O)N2C(=O)c3cc(F)cc(NC(C)=O)c3C2=O)cc1OC([2H])([2H])C([2H])([2H])[2H] [Compound 207, (S)—N-(2-(1-(3-d5-ethoxy-4-d3-methoxyphenyl)-2-(methylsulfonyl)ethyl)-6-fluoro-1,3-dioxoisoindolin-4-yl)acetamide] | 20 | 12 | 20 |
| CCOc1nc(C(CS(C)(=O)=O)N2C(=O)c3c(F)ccc(NC(=O)CN(C)C)c3C2=O)ccc1OC (stereo not drawn) [Compound 751, 2-(dimethylamino)-N-(2-(1-(6-ethoxy-5-methoxypyridin-2-yl)-2-(methylsulfonyl)ethyl)-7-fluoro-1,3-dioxoisoindolin-4-yl)acetamide] | 5 | 3.1 | 9.9 |
| CCOc1nc(C(CS(C)(=O)=O)N2C(=O)c3cccc(NS(C)(=O)=O)c3C2=O)ccc1OC (stereo not drawn) [Compound 737, N-(2-(1-(6-ethoxy-5-methoxypyridin-2-yl)-2-(methylsulfonyl)ethyl)-1,3-dioxoisoindolin-4-yl)methanesulfonamide] | 51.8 | 35.9 | 136 |
| CCOc1nc(C(CS(C)(=O)=O)N2C(=O)c3c(F)ccc(NC(=O)CC(C)C)c3C2=O)ccc1OC (stereo not drawn) [Compound 757, N-(2-(1-(6-ethoxy-5-methoxypyridin-2-yl)-2-(methylsulfonyl)ethyl)-7-fluoro-1,3-dioxoisoindolin-4-yl)-3-methylbutanamide] | 2.5 | 1.8 | 4.5 |
| CCOc1cc(C(CS(C)(=O)=O)N2C(=O)c3c(F)ccc(NC(C)=O)c3C2=O)ccc1OC (stereo not drawn) [Compound 101, N-(2-(1-(3-ethoxy-4-methoxyphenyl)-2-(methylsulfonyl)ethyl)-7-fluoro-1,3-dioxoisoindolin-4-yl)acetamide] | 17 | 12 | 27 |
| CCOc1nc(C(CS(C)(=O)=O)N2C(=O)c3cccc(NC(=O)COCc4ccccc4)c3C2=O)ccc1OC (stereo not drawn) [Compound 742, 2-(benzyloxy)-N-(2-(1-(6-ethoxy-5-methoxypyridin-2-yl)-2-(methylsulfonyl)ethyl)-1,3-dioxoisoindolin-4-yl)acetamide] | 2.4 | 2.6 | 6.2 |
| CCOc1cc(C(CS(C)(=O)=O)N2C(=O)c3cc(F)cc(NC(C)=O)c3C2=O)ccc1OC (stereo not drawn) [Compound 201, N-(2-(1-(3-ethoxy-4-methoxyphenyl)-2-(methylsulfonyl)ethyl)-6-fluoro-1,3-dioxoisoindolin-4-yl)acetamide] | 39 | 25 | 41 |
| CCOc1cc(C(CS(C)(=O)=O)N2C(=O)c3cccc(NC(C)=O)c3C2=O)ncc1OC (stereo not drawn) [Compound 901, N-(2-(1-(4-ethoxy-5-methoxypyridin-2-yl)-2-(methylsulfonyl)ethyl)-1,3-dioxoisoindolin-4-yl)acetamide] | 411 | 248 | 484 |
| CCOc1nc(C(CS(C)(=O)=O)N2C(=O)c3cccc(NC(=O)CC(C)C)c3C2=O)ccc1OC (stereo not drawn) [Compound 760, N-(2-(1-(6-ethoxy-5-methoxypyridin-2-yl)-2-(methylsulfonyl)ethyl)-1,3-dioxoisoindolin-4-yl)-3-methylbutanamide] | 3.1 | 1.3 | 4.7 |
| [2H]C([2H])([2H])Oc1ccc([C@H](CS(C)(=O)=O)N2C(=O)c3cc(F)cc(NC(C)=O)c3C2=O)nc1OCC [Compound 725, (R)—N-(2-(1-(6-ethoxy-5-d3-methoxypyridin-2-yl)-2-(methylsulfonyl)ethyl)-6-fluoro-1,3-dioxoisoindolin-4-yl)acetamide] | 32.1 | 33.5 | 93 |
| CCOc1nc([C@@H](CS(C)(=O)=O)N2C(=O)c3c(C#N)ccc(NC(C)=O)c3C2=O)ccc1OC [Compound 732, (S)—N-(7-cyano-2-(1-(6-ethoxy-5-methoxypyridin-2-yl)-2-(methylsulfonyl)ethyl)-1,3-dioxoisoindolin-4-yl)acetamide] | 0.8 | 1.1 | 2.4 |
| CCOc1cc(C(CS(C)(=O)=O)N2C(=O)c3cccc(NC(C)=O)c3C2=O)cnc1OC (stereo not drawn) [Compound 801, N-(2-(1-(5-ethoxy-6-methoxypyridin-3-yl)-2-(methylsulfonyl)ethyl)-1,3-dioxoisoindolin-4-yl)acetamide] | 295 | 202 | 364 |
| [2H]C([2H])([2H])Oc1ccc([C@H](CS(C)(=O)=O)N2C(=O)c3c(F)ccc(NC(C)=O)c3C2=O)cc1OC([2H])([2H])[2H] [Compound 106, (R)—N-(2-(1-(3,4-d6-dimethoxyphenyl)-2-(methylsulfonyl)ethyl)-7-fluoro-1,3-dioxoisoindolin-4-yl)acetamide] | 340 | 300 | 493 |
| CCOc1cc([C@@H](CS(C)(=O)=O)N2C(=O)c3cc(F)cc(NC(C)=O)c3C2=O)ccc1OC [Compound 202, (S)—N-(2-(1-(3-ethoxy-4-methoxyphenyl)-2-(methylsulfonyl)ethyl)-6-fluoro-1,3-dioxoisoindolin-4-yl)acetamide] | 11 | 5.4 | 11 |
| [2H]C([2H])([2H])Oc1ccc([C@@H](CS(C)(=O)=O)N2C(=O)c3cccc(NC(=O)C4CC4)c3C2=O)cc1OCC [Compound 120, (S)—N-(2-(1-(3-ethoxy-4-d3-methoxyphenyl)-2-(methylsulfonyl)ethyl)-1,3-dioxoisoindolin-4-yl)cyclopropanecarboxamide] | 7.6 | 4.9 | 11 |
| [2H]C([2H])([2H])Oc1ccc([C@@H](CS(C)(=O)=O)N2C(=O)c3c(F)ccc(NC(C)=O)c3C2=O)cc1OC([2H])([2H])[2H] [Compound 105, (S)—N-(2-(1-(3,4-d6-dimethoxyphenyl)-2-(methylsulfonyl)ethyl)-7-fluoro-1,3-dioxoisoindolin-4-yl)acetamide] | 61 | 41 | 97 |
| CCOc1cc([C@@H](CS(C)(=O)=O)N2C(=O)c3cncc(NC(C)=O)c3C2=O)ccc1OC [Compound 502, (S)—N-(2-(1-(3-ethoxy-4-methoxyphenyl)-2-(methylsulfonyl)ethyl)-1,3-dioxo-2,3-dihydro-1H-pyrrolo[3,4-c]pyridin-7-yl)acetamide] | 206 | 107 | 513 |
| CCOc1nc(C(CS(C)(=O)=O)N2C(=O)c3c(F)ccc(NC(=O)COC)c3C2=O)ccc1OC (stereo not drawn) [Compound 745, N-(2-(1-(6-ethoxy-5-methoxypyridin-2-yl)-2-(methylsulfonyl)ethyl)-7-fluoro-1,3-dioxoisoindolin-4-yl)-2-methoxyacetamide] | 1.1 | 1.2 | 2.6 |
| CCOc1nc([C@@H](CS(C)(=O)=O)N2C(=O)c3cc(C#N)cc(NC(C)=O)c3C2=O)ccc1OC [Compound 734, (S)—N-(6-cyano-2-(1-(6-ethoxy-5-methoxypyridin-2-yl)-2-(methylsulfonyl)ethyl)-1,3-dioxoisoindolin-4-yl)acetamide] | 5.6 | 13 | 17.8 |
| [2H]C([2H])([2H])Oc1ccc([C@H](CS(C)(=O)=O)N2C(=O)c3c(F)ccc(NC(C)=O)c3C2=O)nc1OCC [Compound 719, (R)—N-(2-(1-(6-ethoxy-5-d3-methoxypyridin-2-yl)-2-(methylsulfonyl)ethyl)-7-fluoro-1,3-dioxoisoindolin-4-yl)acetamide] | 15.3 | 15.4 | 57.8 |
| CCOc1nc([C@H](CS(C)(=O)=O)N2C(=O)c3cccc(NC(C)=O)c3C2=O)ccc1OC [Compound 703, (R)—N-(2-(1-(6-ethoxy-5-methoxypyridin-2-yl)-2-(methylsulfonyl)ethyl)-1,3-dioxoisoindolin-4-yl)acetamide] | 30 | 20 | 55 |
| CCOc1nc([C@@H](CS(C)(=O)=O)N2C(=O)c3cccc(NC(=O)C4CC4)c3C2=O)ccc1OC [Compound 770, (S)—N-(2-(1-(6-ethoxy-5-methoxypyridin-2-yl)-2-(methylsulfonyl)ethyl)-1,3-dioxoisoindolin-4-yl)cyclopropanecarboxamide] | 1.6 | 1.5 | 1.8 |
| CCOc1nc([C@H](CS(C)(=O)=O)N2C(=O)c3c(F)ccc(NC(C)=O)c3C2=O)ccc1OC [Compound 706, (R)—N-(2-(1-(6-ethoxy-5-methoxypyridin-2-yl)-2-(methylsulfonyl)ethyl)-7-fluoro-1,3-dioxoisoindolin-4-yl)acetamide] | 6.5 | 4 | 18 |
